Read-outs that look alike come from different tables or passages of the source.
Assays:
[1] = Degradation of LEU and L18FCs and conversion to LEU in human plasma; type: in vitro ADME
[2] = no reference given, cited from earlier work
[3] = no reference given, cited from earlier work; remark: listed apart in the source
[4] = 1 mg intravenous administration; no reference given; cited from earlier work

Molecule: CCNC(=O)[C@@H]1CCCN1C(=O)[C@H](CCCNC(=N)N)NC(=O)[C@H](CC(C)C)NC(=O)[C@@H](CC(C)C)NC(=O)[C@H](Cc1ccc(O)cc1)NC(=O)[C@H](CO)NC(=O)[C@H](Cc1c[nH]c2ccccc12)NC(=O)[C@H](Cc1c[nH]cn1)NC(=O)[C@@H]1CCC(=O)N1 [LEU, leuprolide]
- metabolised at 840 h, 1 mg/mL [1]: ~45.8%
- Solubility in phosphate buffered solution (PBS) ([2]; PBS, introduction statement): approximately 10 mg/mL

Molecule: CCCCC/C=C\C/C=C\CCCCCCCC(=O)O [Linoleic acid]
- log P ([3]; C18 fatty acids, Table 2): 7.05

Molecule: CCCCCCCC/C=C\CCCCCCCC(=O)O [Oleic acid]
- log P ([3]; C18 fatty acids, Table 2): 7.64

Molecule: CCCCCCCCCCCCCCCCCC(=O)O [Stearic acid]
- log P ([3]; C18 fatty acids, Table 2): 8.23

Molecule: leuprolide acetate [LEU acetate]
- Solubility ([2]; in water): ≥ 66.66 mg/mL (52.51 mM) in water
- log P ([3]; LEU acetate, Table 1): −2.7–1.07
- Half life [4]: 3 h

Reference: publication PMC9124699 (International Journal of Nanomedicine, 2022)
